# Assay results from ChEMBL document CHEMBL1201862, “PubChem BioAssay data set” (2004).
# Calls of active or inactive are those of the source.
# Legend:
# [1] = molecular target: T1, Zinc finger protein mex-5 (Caenorhabditis elegans, UniProt Q9XUB2); assay: potency of MEX-5 RNA-binding blockers – biochemical, C. elegans, fluorescence polarization, dose response (AID 1960)
# T1 sequence (Q9XUB2 whole entry): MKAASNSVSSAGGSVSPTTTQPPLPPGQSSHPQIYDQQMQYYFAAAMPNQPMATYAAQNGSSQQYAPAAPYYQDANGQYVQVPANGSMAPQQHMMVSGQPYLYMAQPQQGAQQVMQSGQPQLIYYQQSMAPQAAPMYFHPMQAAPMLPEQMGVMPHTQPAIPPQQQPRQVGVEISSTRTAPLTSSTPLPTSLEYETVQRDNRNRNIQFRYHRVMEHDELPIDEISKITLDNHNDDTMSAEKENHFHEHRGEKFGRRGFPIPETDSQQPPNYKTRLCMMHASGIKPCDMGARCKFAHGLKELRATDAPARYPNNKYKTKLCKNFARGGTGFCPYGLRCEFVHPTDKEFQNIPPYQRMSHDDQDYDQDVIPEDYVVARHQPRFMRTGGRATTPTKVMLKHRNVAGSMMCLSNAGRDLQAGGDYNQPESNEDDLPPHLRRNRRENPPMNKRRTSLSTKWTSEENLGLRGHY
# [2] = molecular target: T2, Endoribonuclease toxin MazF (Escherichia coli K-12, UniProt P0AE70); assay: activation of MazEF endoribonuclease cleavage – biochemical, fluorescence, single-stranded RNA substrate, uHTS hits, dose response (AID 588481); assay type: functional
# T2 sequence (P0AE70 whole entry): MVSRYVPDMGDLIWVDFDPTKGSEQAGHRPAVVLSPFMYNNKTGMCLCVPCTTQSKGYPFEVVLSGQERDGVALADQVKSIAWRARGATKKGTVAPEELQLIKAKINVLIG
# [3] = molecular target: T2, Endoribonuclease toxin MazF; assay: substrate-only fluorescence increase artefacts – biochemical, single-stranded RNase substrate, counter-screen for MazEF activator project, dose response (AID 588502); assay type: functional
# [4] = molecular target: T3, RNA-binding protein pos-1 (Caenorhabditis elegans, UniProt G5EF15); assay: disruptors of C. elegans POS-1 RNA interaction – biochemical, fluorescence polarization, dose response (AID 1964);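 note: purified POS-1 fused to maltose binding protein made in E. coli; potency of compounds blocking POS-1 binding to fluorescent RNA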
# T3 sequence (G5EF15 whole entry): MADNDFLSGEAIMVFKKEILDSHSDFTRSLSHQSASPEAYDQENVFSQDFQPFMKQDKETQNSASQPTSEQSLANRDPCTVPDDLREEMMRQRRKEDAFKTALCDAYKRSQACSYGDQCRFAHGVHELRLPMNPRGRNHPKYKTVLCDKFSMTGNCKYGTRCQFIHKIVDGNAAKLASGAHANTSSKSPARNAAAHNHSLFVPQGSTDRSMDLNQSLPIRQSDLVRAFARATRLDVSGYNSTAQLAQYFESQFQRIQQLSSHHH
# Bcl-2-related protein A1 = molecular target: T4, Bcl-2-related protein A1 (Mus musculus, UniProt Q07440); assay type: functional;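 note: confirmatory dose–response counterscreen on Bfl-1, used to check hits from a UBC13 polyubiquitin inhibitor campaign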
# T4 sequence (Q07440 whole entry): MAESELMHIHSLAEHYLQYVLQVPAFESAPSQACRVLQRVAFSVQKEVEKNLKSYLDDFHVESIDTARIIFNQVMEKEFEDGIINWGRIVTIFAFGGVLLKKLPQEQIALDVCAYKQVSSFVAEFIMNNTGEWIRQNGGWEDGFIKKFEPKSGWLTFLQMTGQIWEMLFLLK
# [5] = molecular target: T5, Ubiquitin-conjugating enzyme E2 N (Homo sapiens, UniProt P61088); assay type: functional
# T5 sequence (P61088 whole entry): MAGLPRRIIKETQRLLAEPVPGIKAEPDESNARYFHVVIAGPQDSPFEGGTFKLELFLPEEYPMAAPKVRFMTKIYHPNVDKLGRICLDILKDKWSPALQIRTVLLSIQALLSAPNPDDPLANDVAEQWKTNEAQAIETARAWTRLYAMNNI
# [6] = molecular target: T5, Ubiquitin-conjugating enzyme E2 N; assay type: functional; remark: listed apart in the source
# [7] = molecular target: Dual specificity tyrosine-phosphorylation-regulated kinase 1A (Rattus norvegicus, UniProt Q63470); assay type: biochemical, Homo sapiens
# [8] = molecular target: T6, Heat shock factor protein 1 (Mus musculus, UniProt P38532); assay: enhancement of HSF1-driven luciferase signal – cell-based, NIH3T3, luminescence, dose retest, confirmation (AID 435004); assay type: functional;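 note: stress induced by proteasome inhibitor MG132 added 30 min after compound; luciferase reporter driven by HSF1 response element in NIH3T3 cells; actives raise luminescence as potentiators of the MG132 stress response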
# T6 sequence (P38532 whole entry): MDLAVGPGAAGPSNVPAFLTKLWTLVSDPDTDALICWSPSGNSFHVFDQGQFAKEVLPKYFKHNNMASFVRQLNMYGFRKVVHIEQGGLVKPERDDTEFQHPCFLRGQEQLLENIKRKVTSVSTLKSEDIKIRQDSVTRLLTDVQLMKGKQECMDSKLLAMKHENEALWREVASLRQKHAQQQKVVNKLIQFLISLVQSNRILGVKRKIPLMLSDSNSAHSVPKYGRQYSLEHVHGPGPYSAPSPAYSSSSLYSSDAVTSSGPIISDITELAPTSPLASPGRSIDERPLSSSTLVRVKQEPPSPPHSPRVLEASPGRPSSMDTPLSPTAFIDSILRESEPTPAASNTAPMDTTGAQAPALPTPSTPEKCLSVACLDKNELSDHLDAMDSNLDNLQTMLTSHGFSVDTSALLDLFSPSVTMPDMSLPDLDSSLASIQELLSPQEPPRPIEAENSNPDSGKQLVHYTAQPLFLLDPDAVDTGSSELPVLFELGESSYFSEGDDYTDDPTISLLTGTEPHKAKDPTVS
# Troponin, cardiac muscle = Troponin, cardiac muscle (Homo sapiens, UniProt P19429+P45379+P63316); assay: Fluorescence-based biochemical high throughput dose response assay for activators of the calcium sensitivity of cardiac Regulated Thin Filaments (RTF). [Related pubchem assays (depositor defined):AID493008, AID493018, AID504382, AID504383]; assay type: protein-complex assay
# [9] = molecular target: T7, Carboxy-terminal domain RNA polymerase II polypeptide A small phosphatase 1 (Homo sapiens, UniProt Q9GZU7); assay: CTDSP1 inhibitors, concentration-response, biochemical, absorbance readout, ultra-high-throughput screen actives (AID 540297); assay type: functional
# T7 sequence (Q9GZU7 whole entry): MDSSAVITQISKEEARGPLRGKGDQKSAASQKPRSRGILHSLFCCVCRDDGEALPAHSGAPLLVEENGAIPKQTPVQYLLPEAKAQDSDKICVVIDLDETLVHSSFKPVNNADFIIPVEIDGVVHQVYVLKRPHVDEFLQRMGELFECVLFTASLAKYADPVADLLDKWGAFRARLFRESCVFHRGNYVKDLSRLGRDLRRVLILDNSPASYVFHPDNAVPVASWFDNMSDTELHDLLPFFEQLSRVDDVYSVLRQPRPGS
# [10] = molecular target: T8, DNA dC->dU-editing enzyme APOBEC-3G (Homo sapiens, UniProt Q9HC16); assay type: functional
# T8 sequence (Q9HC16 whole entry): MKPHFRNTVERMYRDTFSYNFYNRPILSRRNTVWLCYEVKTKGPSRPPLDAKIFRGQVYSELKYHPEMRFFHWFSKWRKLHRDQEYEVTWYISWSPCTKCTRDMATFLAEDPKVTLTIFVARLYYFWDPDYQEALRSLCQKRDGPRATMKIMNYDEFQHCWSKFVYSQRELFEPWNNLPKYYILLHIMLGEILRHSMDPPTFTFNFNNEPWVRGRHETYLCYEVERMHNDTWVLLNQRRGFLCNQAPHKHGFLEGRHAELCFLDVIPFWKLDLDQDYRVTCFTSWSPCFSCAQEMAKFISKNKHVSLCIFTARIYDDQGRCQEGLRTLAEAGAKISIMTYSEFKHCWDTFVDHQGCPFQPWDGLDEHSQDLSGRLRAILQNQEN
# [11] = HIV-1 Vif–A3G interaction blockers – biochemical, TR-FRET, GST-Vif 1-94, biotin-A3G peptide, dose response retest, primary screen (AID 1117319); assay type: functional;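 note: TR-FRET signal of purified GST-Vif binding a biotinylated A3G peptide; inhibitors lower the FRET signal by blocking Vif and A3G binding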
# [12] = molecular target: T9, DNA dC->dU-editing enzyme APOBEC-3A (Homo sapiens, UniProt P31941); assay: Dose Response confirmation of small molecule APOBEC3A DNA Deaminase Inhibitors via a fluorescence-based single-stranded DNA deaminase assay. [Related pubchem assays (depositor defined):AID493011, AID493024]; assay type: functional
# T9 sequence (P31941 whole entry): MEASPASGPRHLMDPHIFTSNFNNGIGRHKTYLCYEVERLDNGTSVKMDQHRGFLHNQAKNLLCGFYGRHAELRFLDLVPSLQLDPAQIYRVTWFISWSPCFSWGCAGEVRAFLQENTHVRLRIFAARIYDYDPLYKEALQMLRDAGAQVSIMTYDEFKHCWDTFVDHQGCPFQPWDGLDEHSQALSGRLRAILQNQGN
# Vero = assay: viability of Vero cells under compound – cytotoxicity control for flavivirus capping enzyme inhibitors (AID 588742); assay type: functional; conditions: Chlorocebus sabaeus
# [13] = Luminescence Cell-Based Dose Response HTS to Identify Activators of Luciferase Translation or Activity in H4 […] Cells. [Related pubchem assays: 1829 (Project Summary), 1814 (Primary HTS)]; assay type: functional
# [14] = loss of viability in HepG2 cells – cell-based, CellTiter-Glo, cherry-picked, cytotoxicity control for Shn3 inhibitor project, dose response (AID 624134); assay type: functional
# [15] = non-specific 3'UTR reporter inhibition in Clone20-Shn3RL – cell-based, Renilla luciferase, cherry-picked, counter-screen for Shn3 inhibitor project, dose response (AID 624133); assay type: functional
# H4 = assay: Luminescence Cell-Based Dose Response HTS to Identify Activators of 5'UTR Stem-Loop Driven Prion Protein mRNA Translation in H4 Neuroglioblastoma Cells. [Related pubchem assays: 1829 (Project Summary), 1814 (Primary HTS)]; assay type: functional; conditions: Homo sapiens
# [16] = NIH-3T3 fibroblast cytotoxicity, dose response, cytotoxicity control, cell-based, fluorescence, Alamar Blue, secondary assay (AID 2327); assay type: functional;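 note: NIH-3T3 mouse fibroblasts cultured with fluconazole at 8 µg/mL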
# [17] = reduction of Shn3 3'UTR-driven luciferase in osteoblasts – cell-based, Clone20 osteoblasts, firefly luciferase, cherry-picked, dose response (AID 624132); assay type: functional;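 note: firefly luciferase luminescence from reporter carrying the Shn3 3'UTR in osteoblasts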
# [18] = Luminescence Cell-Based Dose Confirmation HTS to Identify Activators of 5'UTR Stem-Loop Driven Alpha-Synuclein mRNA Translation in H4 Neuroglioblastoma Cells. [Related pubchem assays: 1829 (Project Summary), 1814 (Primary HTS)]; assay type: functional
# INS1 = assay: INS-1E survival protection against cytokine death – cell-based, luminescence, retest, dose response (AID 449756); assay type: functional; conditions: Rattus norvegicus;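 note: cell death triggered by IL-1 beta plus TNF-alpha plus IFN-gamma mixture; protective hits raise ATP signal compared with cytokine alone wells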
# [19] = fluconazole-exposed Candida albicans growth modulators – fluorescence, retest, confirmation (AID 2467); assay type: functional, cell-based
# [20] = Trypanosoma cruzi growth suppression in host cells – NIH3T3 host cells, beta-gal luminescence, confirmation (AID 2044); assay type: functional, cell-based;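 note: intracellular parasites grown in NIH/3T3 mouse fibroblasts as host cells; luminescent beta-galactosidase reporter signal from transgenic T. cruzi replicating inside host cells; inhibitors lower the luminescence signal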
# HEK293 = assay: EBV LMP1 TES2 canonical NF-kB signalling blockers – cell-based, HEK293, luciferase, cherry-pick, dose response (AID 588343); assay type: functional; conditions: Homo sapiens
# [21] = NIH3T3 cell viability loss – ATP luminescence, mouse fibroblasts, counter-screen, dose response (AID 2010); assay type: functional, cell-based;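 note: cells exposed to compound for about 90 hours before reading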
# [22] = molecular target: T8, DNA dC->dU-editing enzyme APOBEC-3G; assay: Dose Response confirmation of small molecule APOBEC3G DNA Deaminase Inhibitors via a fluorescence-based single-stranded DNA deaminase assay. [Related pubchem assays (depositor defined):AID493012, AID493028]; assay type: functional
# [23] = molecular target: T9, DNA dC->dU-editing enzyme APOBEC-3A; assay: A3A deaminase inhibition for selectivity – biochemical, dose response (AID 504722); assay type: functional
# Large T antigen = Large T antigen (Simian virus 40, UniProt P03070); assay type: functional, Betapolyomavirus macacae;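 note: Confirmatory-stage PubChem screen for compounds that inhibit SV40 T antigen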
# Sequence of Large T antigen (P03070 whole entry): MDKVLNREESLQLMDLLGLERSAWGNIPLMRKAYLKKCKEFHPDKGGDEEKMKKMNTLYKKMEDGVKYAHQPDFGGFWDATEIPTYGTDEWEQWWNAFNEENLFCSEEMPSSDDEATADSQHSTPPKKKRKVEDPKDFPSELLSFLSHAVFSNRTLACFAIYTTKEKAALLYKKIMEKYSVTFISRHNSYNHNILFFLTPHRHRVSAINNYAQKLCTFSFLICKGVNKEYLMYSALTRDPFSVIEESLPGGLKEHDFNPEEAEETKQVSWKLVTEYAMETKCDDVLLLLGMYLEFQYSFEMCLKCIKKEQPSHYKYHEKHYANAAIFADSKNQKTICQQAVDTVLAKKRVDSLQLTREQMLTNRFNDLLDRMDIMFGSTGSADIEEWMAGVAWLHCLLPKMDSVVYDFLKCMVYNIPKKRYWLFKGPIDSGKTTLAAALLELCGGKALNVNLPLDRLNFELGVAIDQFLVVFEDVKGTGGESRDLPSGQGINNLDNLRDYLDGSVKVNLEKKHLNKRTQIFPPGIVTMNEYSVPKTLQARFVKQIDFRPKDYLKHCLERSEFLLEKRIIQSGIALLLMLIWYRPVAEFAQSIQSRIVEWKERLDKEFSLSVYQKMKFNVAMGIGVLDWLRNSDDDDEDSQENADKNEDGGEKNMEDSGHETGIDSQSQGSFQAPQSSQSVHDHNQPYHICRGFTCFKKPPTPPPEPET
smiles,measurement,setting,value
CCCCN1C(=O)NC(=O)/C(=C/c2c[nH]c3ccccc23)C1=O,EC50,[1],29.9 µM (active)
same,EC50,[2],> 99 µM (inactive)
same,EC50,[3],> 99 µM (inactive)
same,EC50,[4],28.4 µM (inconclusive)
O=C(CSCc1ccc([N+](=O)[O-])cc1)N[N-][C+]1CCCCCC1,IC50,Bcl-2-related protein A1,> 20 µM (inactive)
same,IC50,[5],13.7 µM (active)
same,IC50,[6],5.71 µM (active)
O=C1NC(=S)S/C1=C/c1ccc(OC(=O)c2ccco2)cc1,EC50,[2],> 99 µM (inactive)
same,AC50,[7],4.1 µM (active)
same,EC50,[3],16.4 µM (active)
same,EC50,[8],> 260 µM (inactive)
CCc1nc(Nc2cccc(O)c2)c2oc3ccccc3c2n1,AC50,[7],9.77 µM (active)
CC(=O)C(=CNc1noc(C)c1Br)C(C)=O,EC50,"Troponin, cardiac muscle",> 71.6 µM (inactive)
COc1ccc2c(c1)c(=O)oc1c(C)c(OCc3cc(C(=O)O)oc3C)ccc12,IC50,[9],9.08 µM (active)
same,AC50,[7],1.51 µM (active)
CNc1ccccc1C(C)(C)c1cc(C)[nH]n1,EC50,"Troponin, cardiac muscle",> 71.5 µM (inactive)
COc1ccc(S(=O)(=O)N(CCc2ccccc2)CC(=O)NC(C)C)cc1,IC50,[10],5.95 µM (active)
same,IC50,[11],> 100 µM (active)
same,IC50,[12],6.35 µM (active)
O=C(NCc1ccco1)c1cc(-c2cccs2)nc2ccccc12,CC50,Vero,> 40 µM (active)
CCn1c(/C=C/c2ccc([N+](=O)[O-])o2)nc2ccccc2c1=O,EC50,[13],> 60 µM (not active)
same,EC50,[1],> 150 µM (inconclusive)
same,AC50,[14],13.6 µM (active)
same,AC50,[15],8.48 µM (active)
same,EC50,H4,> 120 µM (not active)
same,EC50,[2],> 99 µM (inactive)
same,EC50,[16],7.6 µM (inconclusive)
same,AC50,[17],4.51 µM (active)
same,EC50,[18],> 120 µM (not active)
same,AC50,INS1,3.43 µM (active)
same,EC50,[19],0.682 µM (active)
same,EC50,[3],> 99 µM (inactive)
same,EC50,[4],5.46 µM (inconclusive)
same,EC50,[20],0.213 µM (active)
same,AC50,HEK293,10.8 µM (active)
same,EC50,[21],3.14 µM (active)
NC(=O)NC(CC(=O)NNC(=O)c1ccccn1)c1ccc(Cl)cc1 (stereo not given),IC50,Bcl-2-related protein A1,> 20 µM (inactive)
same,IC50,[5],12.4 µM (active)
same,IC50,[6],19.6 µM (active)
Cc1cc(Cl)nc(N)n1,EC50,"Troponin, cardiac muscle",> 71.4 µM (inactive)
COc1ccccc1/C=C/C=N/n1c(S)nnc1-c1ccncc1,IC50,[22],2.21 µM (active)
same,IC50,[23],> 100 µM (inactive)
CC(/C=N/n1c(S)nnc1-c1[nH]nc2c1CCC2)=C\c1ccco1,IC50,[22],2.29 µM (active)
same,IC50,Large T antigen,32.3 µM (active)
same,IC50,[23],> 100 µM (inactive)
COc1cccc(/C=N\NC(=O)c2sc(N)nc2C)c1OC,IC50,Bcl-2-related protein A1,> 20 µM (inactive)
same,IC50,[5],0.965 µM (active)
same,IC50,[6],0.947 µM (active)
COc1cc2c(cc1OC)-c1c(OC)c(OC)cc3c1[C@H](C2)[N+](C)(C)CC3 [GLAUCINE METHIODIDE],IC50,[10],1.66 µM (active)
same,IC50,[12],1.85 µM (active)
